According to US11919886B2, “4,9-dioxo-4,9-dihydronaphtho[2,3-B]furan-3-carboxamide derivatives and uses thereof for treating proliferative diseases and infectious diseases” (Academia Sinica, priority 2016, dated 2024):
Converted amounts (≈) assume the structure as drawn. Read-outs that look alike come from different tables or passages of the source.

Columns and labels:
H1975 cells [1] = assay: BrdU incorporation (DNA replication) by flow cytometry; assay type: cell-based, human; conditions: H1975, treated 12, 24 or 48 h
Experimental: Panel (A): A chart showing DNA replication in Compound 1-treated H1975 cells was inhibited. DNA histograms (BrdU incorporation vs. DNA content) of DMSO or compound 1-treated H1975 cells are shown at 12 to 48 hours. The H1975 cells were BrdU-pulsed (BD Pharmingen™ BrdU Flow Kit Staining) and analyzed by flow cytometry. Panel (B): A chart showing compound 1 decreased the replication fork number. The replication forks were analyzed by immunofluorescence staining with anti-MCM2 antibodies (see row labeled “MCM2” and “Merge with DAPI”) and DAPI (see row labeled “Merge with DAPI”). The quantification was made by counting signals obtained with the anti-MCM2 antibody using Image J software. (n=5 cells per group; original magnification, ×1000). Panel (C): A chart showing compound 1-treated H1975 cells have a prolonged S phase. A double thymidine block was performed, and the data were collected at the indicated time points.
To evaluate the effects on DNA replication of Compound 1, the levels of BrdU (5′-bromo′-2′-deoxyuridine) incorporation were examined. Exemplary results are shown in Panel (A) of FIG. 2. […] The content of BrdU was assessed using fluorescent antibodies. […] The samples were analyzed in a FACS caliber flow cytometer (Becton Dickinson, Sweden) for dot plot histogram analysis (BrdU incorporation vs. DNA content).

[2] = tested on: Streptococcus infantarius subsp. coli; assay: MIC, broth micro dilution method; assay type: cell-based; conditions: strain ATCC BAA-103, S. bovis
Pseudomonas aeruginosa = assay: MIC, broth micro dilution method; assay type: cell-based
Enterococcus faecalis = assay: MIC, broth micro dilution method; assay type: cell-based
[3] = tested on: Streptococcus infantarius subsp. infantarius; assay: MIC, broth micro dilution method; assay type: cell-based; conditions: strain ATCC BAA-102, S. bovis
MCM2 = target: T1, MCM2 (Homo sapiens, UniProt P49736); assay: MCM2 ubiquitination (Myc-Ub transfection, MCM2 immunoprecipitation); assay type: cell-based; conditions: H1975 co-expressing Myc-Ub, 140 nM, 12 hours
T1 construct: The MCM2 proteins were pulled down by incubating the H1975 lysate with compound 1-conjugated magnetic beads; endogenous in cells; host or cells: H1975
T1 sequence (P49736 whole entry): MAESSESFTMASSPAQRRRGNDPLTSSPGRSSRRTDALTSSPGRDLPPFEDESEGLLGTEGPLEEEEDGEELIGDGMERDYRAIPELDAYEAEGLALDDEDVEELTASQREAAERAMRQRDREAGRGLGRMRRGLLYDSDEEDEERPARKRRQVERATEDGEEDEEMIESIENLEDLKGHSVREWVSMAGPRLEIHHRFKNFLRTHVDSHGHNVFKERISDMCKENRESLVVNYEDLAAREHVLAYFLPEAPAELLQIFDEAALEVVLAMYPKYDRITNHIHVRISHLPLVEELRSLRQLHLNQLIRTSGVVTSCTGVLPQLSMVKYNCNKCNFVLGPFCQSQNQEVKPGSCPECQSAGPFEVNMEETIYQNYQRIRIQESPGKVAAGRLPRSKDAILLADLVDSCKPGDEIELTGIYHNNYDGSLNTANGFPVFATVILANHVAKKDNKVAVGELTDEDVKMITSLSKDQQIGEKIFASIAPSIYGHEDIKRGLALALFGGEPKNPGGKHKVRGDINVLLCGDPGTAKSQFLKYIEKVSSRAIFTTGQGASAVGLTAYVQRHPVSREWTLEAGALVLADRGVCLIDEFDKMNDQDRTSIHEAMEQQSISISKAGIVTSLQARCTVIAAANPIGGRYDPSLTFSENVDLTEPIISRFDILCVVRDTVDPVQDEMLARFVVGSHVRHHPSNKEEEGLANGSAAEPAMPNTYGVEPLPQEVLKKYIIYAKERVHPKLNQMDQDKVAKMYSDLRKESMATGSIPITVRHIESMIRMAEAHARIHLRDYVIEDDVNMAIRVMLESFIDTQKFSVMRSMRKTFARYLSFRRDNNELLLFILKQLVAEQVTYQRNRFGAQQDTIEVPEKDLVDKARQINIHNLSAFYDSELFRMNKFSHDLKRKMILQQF
Experimental: To determine whether Compound 1 triggers MCM2 degradation through promoting MCM2 ubiquitination, Myc-tagged ubiquitin (Myc-Ub) was transfected into H1975 cells treated with or without compound 1 and followed by MCM2 immunoprecipitation. The cells were transiently transfected with pcDNA3-Myc-Ub and treated with or without 140 nM of compound 1 combined with MG132. After 12 hours, the cells were harvested and MCM2 proteins were precipitated with specific anti-MCM2 antibodies. The ubiqiuitination pattern were detected by immunoblotting. IgG served as the antibody control in the immunoprecipitation experiment.

[4] = tested on: Streptococcus gallolyticus subsp. gallolyticus; assay: MIC, broth micro dilution method; assay type: cell-based; conditions: strain ATCC43143, S. bovis
[5] = tested on: CL1-0 (human lung adenocarcinoma cells, EGFR wild type and resistant to gefitinib); assay: SRB cytotoxicity assay, CL1-0; conditions: CL1-0, 72 h
[6] = tested on: PC9 (human lung adenocarcinoma cells, EGFR del 19 mutation and sensitive to gefitinib); assay: SRB cytotoxicity assay, PC9; conditions: 72 h
H1975 cells [7] = assay: Cell cycle analysis by propidium iodide flow cytometry; conditions: 72 h
[8] = tested on: CL1-5 (human lung adenocarcinoma cells, EGFR wild type and resistant to gefitinib); assay: SRB cytotoxicity assay, CL1-5; conditions: CL1-5, 72 h
Escherichia coli = assay: MIC, broth micro dilution method; assay type: cell-based
Klebsiella pneumoniae = assay: MIC, broth micro dilution method; assay type: cell-based
[9] = tested on: Staphylococcus epidermidis; assay: MIC, broth micro dilution method; assay type: cell-based
[10] = tested on: subcutaneous H1975 tumors; assay: H1975 xenograft tumor growth in athymic nude mice (compound 1); assay type: in vivo; conditions: for average tumor size: day 27
Experimental: Panel (A): The structure of compound 1. Panel(B): A chart showing exemplary results for the cytotoxicity assay of Compound 1-treated cancer cells for 72 hours. […] Panel (C): Photos showing the different tumor sizes and TUNEL assay results between DMSO control and Compound 1-treated mice. H1975 (3×10^6) cells were subcutaneously injected into male nu/nu mice, and daily treated intraperitoneally with Compound I at indicated dose or DMSO for 4 weeks. During the treatment, tumor size and body weights were measured every 3 to 4 days; and the histology was confirmed by H&E staining (left lower panel of panel (C).
Exemplary results are shown in Panel (C) of FIG. 1. […] (Panel (C) of FIG. 1). In addition, the body weight of the mice was calculated when the tumor size was measured. Serum was also collected, and biological analysis in vitro was performed. […] Inhibition of tumor growth of Compound 1 with low cytotoxicity in vivo was observed.

In the case of `Cc1oc2c(c1C(=O)NCCCn1ccnc1)C(=O)c1ccccc1C2=O` [Compound 1, N-(3-(1H-Imidazol-1-yl)propyl)-2-methyl-4,9-dioxo-4,9-dihydronaphtho [2,3-b]furan-3-carboxamide], the “percentages of BrdU-positive cells vs DMSO control” value (H1975 cells [1]) is reported as “lower than those in the DMSO control group”, the MIC ([2]; read-out: MIC (μg/ml) 100%) is reported as 4 µg/mL (≈ 11 µM) and the MIC ([2]; read-out: MIC (μg/ml) 50%) is reported as 2 µg/mL (≈ 5.5 µM). For the same compound, the MIC (Pseudomonas aeruginosa; read-out: MIC (μg/ml) 100%, strain ATCC27853, gram negative) was > 32 µg/mL, the MIC (Pseudomonas aeruginosa; strain ATCC27853, gram negative, read-out: MIC (μg/ml) 50%) was > 32 µg/mL and the MIC (Enterococcus faecalis; read-out: MIC (μg/ml) 100%, strain ATCC19433) was 32 µg/mL (≈ 88.1 µM). For the same compound, the MIC (Enterococcus faecalis; strain ATCC19433, read-out: MIC (μg/ml) 50%) was 16 µg/mL (≈ 44 µM), the MIC ([3]; read-out: MIC (μg/ml) 100%) was 8 µg/mL (≈ 22 µM) and the MIC ([3]; read-out: MIC (μg/ml) 50%) was 4 µg/mL (≈ 11 µM). The “Ubiquitylated MCM2” value (MCM2) was “detected in treated cells”, the MIC ([4]; read-out: MIC (μg/ml) 100%) was 4 µg/mL (≈ 11 µM) and the MIC ([4]; read-out: MIC (μg/ml) 50%) was 2 µg/mL (≈ 5.5 µM). The IC50 [5] was 123 nM, the IC50 [6] was 37 nM and the “Phase(%) G1” value (H1975 cells [7]; H1975, 35 nM) was 70%. The “Phase(%) G2/M” value (H1975 cells [7]; H1975, 35 nM) was 23%, the “Phase(%) S” value (H1975 cells [7]; H1975, 35 nM) was 4% and the “Phase(%) subG1” value (H1975 cells [7]; H1975, 35 nM) was 1%. For the same compound, the “Phase(%) G1” value (H1975 cells [7]; H1975, 70 nM) was 58%, the “Phase(%) G2/M” value (H1975 cells [7]; H1975, 70 nM) was 31% and the “Phase(%) S” value (H1975 cells [7]; H1975, 70 nM) was 7%. The “Phase(%) subG1” value (H1975 cells [7]; H1975, 70 nM) was 1%, the “Phase(%) G1” value (H1975 cells [7]; H1975, 140 nM) was 39% and the “Phase(%) G2/M” value (H1975 cells [7]; H1975, 140 nM) was 38%. For the same compound, the “Phase(%) S” value (H1975 cells [7]; H1975, 140 nM) was 18%, the “Phase(%) subG1” value (H1975 cells [7]; H1975, 140 nM) was 4% and the IC50 [8] was 280 nM. The MIC (Escherichia coli; read-out: MIC (μg/ml) 100%, strain ATCC33625, gram negative) was > 32 µg/mL, the MIC (Escherichia coli; strain ATCC33625, gram negative, read-out: MIC (μg/ml) 50%) was > 32 µg/mL and the MIC (Klebsiella pneumoniae; read-out: MIC (μg/ml) 100%, strain ATCC700603, gram negative) was > 32 µg/mL. For the same compound, the MIC (Klebsiella pneumoniae; strain ATCC700603, gram negative, read-out: MIC (μg/ml) 50%) was > 32 µg/mL, the MIC ([9]; read-out: MIC (μg/ml) 100%, strain ATCC12228, methicillin-susceptible) was 2 µg/mL (≈ 5.5 µM) and the MIC ([9]; read-out: MIC (μg/ml) 100%, strain ATCC35984, methicillin-resistant) was 1 µg/mL (≈ 2.75 µM). It also gave an MIC ([9]; strain ATCC12228, methicillin-susceptible, read-out: MIC (μg/ml) 50%) of 0.5 µg/mL (≈ 1.38 µM), an MIC ([9]; strain ATCC35984, methicillin-resistant, read-out: MIC (μg/ml) 50%) of 0.25 µg/mL (≈ 0.688 µM) and an average tumor size ([10]; 1 mg/kg daily intraperitoneal) of 701.2±196.5 mm^3. The “body weight and serum biological analysis, control group vs compound treatment group” value ([10]; 1 mg/kg or 4 mg/kg daily intraperitoneal, 4 weeks) was “Few differences” and the average tumor size ([10]; 4 mg/kg daily intraperitoneal) was 518.0±93.0 mm^3.
